Source: the Kinase Knowledgebase extract (Sharma et al. 2016)

Target: CDK2 (human) (UniProt P24941)
Experiment: Enzyme Assay

Compound | IC50 [µM]
CCOc1ccc(Nc2c(C)c(N[C@H]3CC[C@H](N)CC3)nc3c(C(=O)Nc4cc[nH]n4)cnn23)cc1 | < 100
Cc1c(N[C@H]2CC[C@H](N)CC2)nc2ccnn2c1Nc1ccc(F)c(Cl)c1 | < 100
CCOc1ccc(Nc2c(C)c(NC(C)(C)CO)nc3ccnn23)cc1 | < 100
Cc1c(N[C@H]2CC[C@H](N)CC2)nc2ccnn2c1Nc1ccc2[nH]ccc2c1 | < 100
CCCc1c(N[C@H]2CC[C@H](N)CC2)nc2c(Br)cnn2c1Nc1ccc(F)c(Cl)c1 | < 100
N[C@H]1CC[C@H](Nc2cc(Nc3ccc(F)c(Cl)c3)n3ncc(Cl)c3n2)CC1 | < 100
CCOc1ccc(Nc2c(C)c(N[C@H]3CC[C@H](N)CC3)nc3c(C(=O)Nc4ncc[nH]4)cnn23)cc1 | < 100
CCc1c(N[C@H]2CC[C@H](N)CC2)nc2ccnn2c1NCc1ccccc1Cl | < 100
Cc1c(N[C@H]2CC[C@H](N)CC2)nc2ccnn2c1Nc1ccc(-c2ccc(F)cc2)cc1 | < 100
Cc1c(N[C@H]2CC[C@H](N)CC2)nc2ccnn2c1Nc1ccc(-n2ccnc2)cc1 | < 100
Cc1c(N[C@H]2CC[C@H](N)CC2)nc2ccnn2c1Nc1ccc(-c2cccc(Cl)c2)cc1 | < 100
Cc1c(N[C@H]2CC[C@H](N)CC2)nc2ccnn2c1Nc1ccc(C(=O)NC2CCCC2)cc1 | < 100
Cc1c(N[C@H]2CC[C@H](N)CC2)nc2ccnn2c1Nc1ccc(-c2ccc(O)cc2)cc1 | < 100
CCOc1ccc(Nc2c(C)c(N(C)C3CCCNC3)nc3ccnn23)cc1 (stereo unspecified) | < 100
Cc1c(N[C@H]2CC[C@H](N)CC2)nc2ccnn2c1Nc1ccc(-c2ccccc2)cc1 | < 100
CCOC(=O)c1ccc(Nc2c(CC)c(N[C@H]3CC[C@H](N)CC3)nc3ccnn23)cc1Cl | < 100
Cc1c(N[C@H]2CC[C@H](N)CC2)nc2ccnn2c1Nc1cccc(OCCn2ccnc2)c1 | < 100
Cc1c(NC2CCCNC2)nc2ccnn2c1Nc1ccccc1F (stereo unspecified) | < 100
Cc1cccc(-c2ccc(Nc3c(C)c(N[C@H]4CC[C@H](N)CC4)nc4ccnn34)cc2)c1 | < 100
COc1c(N[C@H]2CC[C@H](N)CC2)nc2ccnn2c1Nc1ccc(F)c(Cl)c1 | < 100
Cc1nc2cc(Nc3c(C)c(N[C@H]4CC[C@H](N)CC4)nc4ccnn34)ccc2s1 | < 100

Compound | IC50 [µM]
Fc1ccc(Nc2cc(NC3CCCNC3)nc3c(Br)cnn23)cc1Cl (stereo unspecified) | < 100
CCOc1ccc(Nc2c(C)c(NC3(CO)CCCC3)nc3ccnn23)cc1 | < 100
C=C(C)CNc1c(CC)c(N[C@H]2CC[C@H](N)CC2)nc2ccnn12 | < 100
CCc1c(N[C@H]2CC[C@H](N)CC2)nc2ccnn2c1Nc1ccc(N2CCCC2=O)cc1 | < 100
Cc1c(N[C@H]2CC[C@H](N)CC2)nc2ccnn2c1Nc1ccc(-c2ccc(OC(F)(F)F)cc2)cc1 | < 100
CCc1c(N[C@H]2CC[C@H](N)CC2)nc2ccnn2c1Nc1cccc(Oc2ccccc2)c1 | < 100
COc1c(NC2CCCNC2)nc2ccnn2c1Nc1ccc(F)c(Cl)c1 (stereo unspecified) | < 100
Cc1c(N[C@H]2CC[C@H](N)CC2)nc2ccnn2c1Nc1ccc(-c2cccc(O)c2)cc1 | < 100
COc1ccccc1-c1ccc(Nc2c(C)c(N[C@H]3CC[C@H](N)CC3)nc3ccnn23)cc1 | < 100
Cc1c(N[C@H]2CC[C@H](N)CC2)nc2ccnn2c1Nc1cccc(OCCC2CCCCC2)c1 | < 100
Cc1c(NC2CCCNC2)nc2ccnn2c1Nc1ccc(F)c(Cl)c1 (stereo unspecified) | < 100
Cc1c(N[C@H]2CC[C@H](N)CC2)nc2ccnn2c1Nc1ccc(-c2cccc(N)c2)cc1 | < 100
Cc1c(N[C@H]2CC[C@H](N)CC2)nc2ccnn2c1Nc1ccc(-c2cccc(F)c2)cc1 | < 100
COc1ccc(Nc2c(CCCO)c(N[C@H]3CC[C@H](N)CC3)nc3ccnn23)cc1OC | < 100
CCc1c(N[C@H]2CC[C@H](N)CC2)nc2ccnn2c1Nc1cccc(C(N)=O)c1 | < 100
CCc1c(N[C@H]2CC[C@H](N)CC2)nc2ccnn2c1Nc1cccc(Br)c1 | < 100
CCc1c(N[C@H]2CC[C@H](N)CC2)nc2ccnn2c1Nc1ccccc1 | < 100
Cc1c(N[C@H]2CC[C@H](N)CC2)nc2ccnn2c1Nc1ccc(C(=O)NCc2ccco2)cc1 | < 100
Cc1c(N[C@H]2CC[C@H](N)CC2)nc2ccnn2c1Nc1ccc(-c2ccc(C#N)cc2)cc1 | < 100
CCOc1ccc(Nc2c(C)c(N[C@H]3CC[C@H](N)CC3)nc3c(C(=O)NCCN(C)C)cnn23)cc1 | < 100
C=CCNc1c(CC)c(N[C@H]2CC[C@H](N)CC2)nc2ccnn12 | < 100

Compound | IC50 [µM]
Cc1c(N[C@H]2CC[C@H](N)CC2)nc2ccnn2c1Nc1ccc(-c2ccc(N(C)C)cc2)cc1 | < 100
Cc1c(N[C@H]2CC[C@H](N)CC2)nc2ccnn2c1Nc1ccc(C(=O)c2ccccc2)cc1 | < 100
CCOc1ccc(Nc2c(C)c(N[C@H]3CC[C@H](N)CC3)nc3c(C4CCCCC4)cnn23)cc1 | < 100
Cc1c(N[C@H]2CC[C@H](N)CC2)nc2ccnn2c1Nc1cccc(OCc2ccccc2Cl)c1 | < 100
CCOc1cccc(Nc2cc(N[C@H]3CC[C@H](N)CC3)nc3c(C#N)cnn23)c1 | < 100
Cc1c(N[C@H]2CC[C@H](N)CC2)nc2ccnn2c1Nc1ccccc1Cl | < 100
Cc1c(N[C@H]2CC[C@H](N)CC2)nc2ccnn2c1Nc1ccc(-c2ccsc2)cc1 | < 100
CC(C)c1c(N[C@H]2CC[C@H](N)CC2)nc2ccnn2c1Nc1ccc(F)c(Cl)c1 | < 100
CCc1c(NC2CCCNC2)nc2ccnn2c1Nc1ccc(OC)c(Cl)c1 (stereo unspecified) | < 100
Cc1c(N[C@H]2CC[C@H](N)CC2)nc2ccnn2c1Nc1cccc(OCc2ccc(Cl)cc2)c1 | < 100
CCc1c(N[C@H]2CC[C@H](N)CC2)nc2ccnn2c1Nc1ccc(F)c(Cl)c1 | < 100
CCc1c(NC2CCCNC2)nc2c(Cl)cnn2c1Nc1ccc(I)cc1 (stereo unspecified) | < 100
CCOC(=O)c1cccc(Nc2c(CC)c(N[C@H]3CC[C@H](N)CC3)nc3ccnn23)c1 | < 100
Cc1c(NC2CCCNC2)nc2ccnn2c1Nc1ccc(-c2cccc(N)c2)cc1 (stereo unspecified) | < 100
Cc1ccc(Nc2c(C)c(NC3CCCNC3)nc3ccnn23)cc1C (stereo unspecified) | < 100
N[C@H]1CC[C@H](Nc2nc3ccnn3c(Nc3ccc(F)c(Cl)c3)c2-c2ccccc2)CC1 | < 100
Cc1c(N[C@H]2CC[C@H](N)CC2)nc2ccnn2c1Nc1cccc(OCc2ccccc2)c1 | < 100
Cc1c(N[C@H]2CC[C@H](N)CC2)nc2ccnn2c1Nc1cccc(OCc2cccnc2)c1 | < 100
Cc1c(N[C@H]2CC[C@H](N)CC2)nc2ccnn2c1Nc1cccc(OC2CCCC2)c1 | < 100
CCS(=O)(=O)c1ccc(-c2ccc(Nc3c(C)c(N[C@H]4CC[C@H](N)CC4)nc4ccnn34)cc2)cc1 | < 100

Second part, the molecule after the results:

IC50 [µM] | Compound
< 100 | CCOc1ccc(Nc2c(C)c(N[C@H]3CC[C@H](N)CC3)nc3c(CC)cnn23)cc1
< 100 | Cc1c(N[C@H]2CC[C@H](N)CC2)nc2ccnn2c1Nc1ccc(OCCc2ccccn2)cc1
< 100 | COCCOc1ccc(Nc2c(C)c(N[C@H]3CC[C@H](N)CC3)nc3ccnn23)cc1
< 100 | CCOc1ccc(Nc2c(C)c(N[C@H]3CCNC3)nc3ccnn23)cc1
< 100 | CCOC(=O)c1ccc(Nc2c(CC)c(N[C@H]3CC[C@H](N)CC3)nc3ccnn23)cc1
< 100 | Cc1c(N[C@H]2CC[C@H](N)CC2)nc2ccnn2c1Nc1cccc(I)c1
< 100 | COc1cccc(COc2ccc(Nc3c(C)c(N[C@H]4CC[C@H](N)CC4)nc4ccnn34)cc2)c1
< 100 | Cc1c(N[C@H]2CC[C@H](N)CC2)nc2ccnn2c1Nc1ccc(C(F)(F)F)cc1
< 100 | Cc1c(N[C@H]2CC[C@H](N)CC2)nc2ccnn2c1Nc1cccc(CO)c1
< 100 | Cc1c(N[C@H]2CC[C@H](N)CC2)nc2ccnn2c1Nc1ccc(OCc2ccccc2Cl)cc1
< 100 | CCOc1ccc(Nc2c(C)c(N[C@H]3CC[C@H](N)CC3)nc3ccnn23)cc1
< 100 | CCOC(=O)c1cccc(Nc2c(C)c(N[C@H]3CC[C@H](N)CC3)nc3ccnn23)c1
< 100 | Cc1c(N[C@H]2CC[C@H](N)CC2)nc2ccnn2c1Nc1ccc(OCCC2CCCCN2)cc1 (stereo partly specified)
< 100 | Cc1c(N[C@H]2CC[C@H](N)CC2)nc2ccnn2c1Nc1ccc(OCCN2CCCCC2)cc1
< 100 | Cc1c(N[C@H]2CC[C@H](N)CC2)nc2ccnn2c1Nc1ccc(OCCCl)cc1
< 100 | CCOc1ccc(Nc2c(C(C)C)c(N[C@H]3CC[C@H](N)CC3)nc3ccnn23)cc1
< 100 | Cc1c(N[C@H]2CC[C@H](N)CC2)nc2ccnn2c1Nc1cccc(O)c1

IC50 [µM] | Compound
< 100 | Cc1c(N[C@H]2CC[C@H](N)CC2)nc2ccnn2c1Nc1ccc(O)cc1
< 100 | CCOc1ccc(Nc2c(C)c(N[C@@H]3CCNC3)nc3ccnn23)cc1
< 100 | COc1ccc(-c2ccc(Nc3c(C)c(N[C@H]4CC[C@H](N)CC4)nc4ccnn34)cc2)cc1
< 100 | Cc1c(N[C@H]2CC[C@H](N)CC2)nc2ccnn2c1Nc1ccc(OCc2ccccn2)cc1
< 100 | Cc1c(N[C@H]2CC[C@H](N)CC2)nc2ccnn2c1Nc1ccc(OCC2CCCC2)cc1
< 100 | Cc1c(N[C@H]2CC[C@H](N)CC2)nc2ccnn2c1Nc1ccc(OC2CCNC2)cc1 (stereo partly specified)
< 100 | Cc1c(N[C@H]2CC[C@H](N)CC2)nc2ccnn2c1Nc1ccc(OC2CCCCC2)cc1
< 100 | Cc1c(N[C@H]2CC[C@H](N)CC2)nc2ccnn2c1Nc1ccc(OCCn2ccnc2)cc1
< 100 | Cc1c(N[C@H]2CC[C@H](N)CC2)nc2ccnn2c1Nc1cccc(Br)c1
< 100 | Cc1c(N[C@H]2CC[C@H](N)CC2)nc2ccnn2c1Nc1ccc(OC(F)(F)F)cc1
< 100 | CCc1c(N[C@H]2CC[C@H](N)CC2)nc2ccnn2c1Nc1ccc(I)cc1
< 100 | CCOc1ccc(Nc2c(C)c(N[C@H]3CC[C@H](N)CC3)nc3c(N)cnn23)cc1
< 100 | Cc1csc(-c2ccc(Nc3c(C)c(N[C@H]4CC[C@H](N)CC4)nc4ccnn34)cc2)c1
< 100 | COc1cccc(Nc2c(C)c(N[C@H]3CC[C@H](N)CC3)nc3ccnn23)c1
< 100 | Cc1c(N[C@H]2CC[C@H](N)CC2)nc2ccnn2c1Nc1ccc(OCc2cccc(N)c2)cc1
< 100 | CCOc1ccc(Nc2c(C)c(N[C@H]3CC[C@H](N)CC3)nc3c(NC)cnn23)cc1
< 100 | Cc1c(N[C@H]2CC[C@H](N)CC2)nc2ccnn2c1Nc1ccc(OCc2cccc(Cl)c2)cc1
